Reference: PubChem BioAssay (NCI)
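Each compound was tested at five concentrations against cells in 96-well plates for 48 hours. GI50 = concentration required for 50% inhibition of growth. The concentration for full growth arrest is given as TGI.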

Experiments:
Test in all cases: inhibition of tumour cell growth, NCI panel, 48 h
[1] = system: MDA-MB-231 breast
[2] = system: NCI-H522 lung
[3] = system: OVCAR-5 ovarian
[4] = system: SR leukemia
[5] = system: TK-10 renal
[6] = system: KM12 colon
[7] = system: HOP-62 NSCLC
[8] = system: SNB-75 CNS
[9] = system: HCC-2998 colon
[10] = system: CCRF-CEM leukemia
[11] = system: RXF 393 renal
[12] = system: DU-145 prostate
[13] = system: IGROV1 ovarian
[14] = system: SK-MEL-2 melanoma
[15] = system: HT29 colon
[16] = system: UACC-257 melanoma
[17] = system: LOX IMVI melanoma
[18] = system: MOLT-4 leukemia
[19] = system: M14 melanoma
[20] = system: SK-MEL-5 melanoma
[21] = system: CAKI-1 renal
[22] = system: U251 CNS
[23] = system: K-562 leukemia
[24] = system: SNB-19 CNS
[25] = system: UACC-62 melanoma
[26] = system: OVCAR-4 ovarian
[27] = system: EKVX NSCLC
[28] = system: NCI-H460 lung
[29] = system: PC-3 prostate
[30] = system: NCI-H226 lung
[31] = system: SK-MEL-28 melanoma
[32] = system: 786-0 renal
[33] = system: COLO 205 colon
[34] = system: SW-620 colon
[35] = system: UO-31 renal
[36] = system: OVCAR-3 ovarian
[37] = system: A498 renal
[38] = system: MALME-3M melanoma
[39] = system: HCT-15 colon
[40] = system: A549 NSCLC
[41] = system: SK-OV-3 ovarian
[42] = system: T-47D breast
[43] = system: ACHN renal
[44] = system: NCI/ADR-RES ovarian
[45] = system: OVCAR-8 ovarian
[46] = system: BT-549 breast
[47] = system: HL-60(TB) leukemia
[48] = system: HOP-92 NSCLC
[49] = system: MDA-MB-435
[50] = system: RPMI-8226 leukemia
[51] = system: HCT-116 colon
[52] = system: NCI-H23 lung
[53] = system: SF-268 CNS
[54] = system: HS 578T breast
[55] = system: SF-295 CNS
[56] = system: SN12C renal
[57] = system: MCF7 breast
[58] = system: SF-539 CNS

Compound: COc1ccc2c(c1)CC1Cc3cc(OC)c(OC)cc3CN1CC2 (centres undefined)
- TGI [1]: > 100 µM
- TGI [2]: > 100 µM
- TGI [3]: > 100 µM
- TGI [4]: 60.3 µM
- TGI [5]: > 100 µM
- TGI [6]: > 100 µM
- TGI [7]: > 100 µM
- TGI [8]: > 100 µM
- TGI [9]: > 100 µM
- TGI [10]: 89 µM
- TGI [11]: > 100 µM
- TGI [12]: > 100 µM
- TGI [13]: > 100 µM
- TGI [14]: > 100 µM
- TGI [15]: > 100 µM
- TGI [16]: > 100 µM
- TGI [17]: > 100 µM
- TGI [18]: > 100 µM
- TGI [19]: > 100 µM
- TGI [20]: > 100 µM
- TGI [21]: > 100 µM
- TGI [22]: > 100 µM
- TGI [23]: > 100 µM
- TGI [24]: > 100 µM
- TGI [25]: > 100 µM
- TGI [26]: > 100 µM
- TGI [27]: > 100 µM
- TGI [28]: > 100 µM
- TGI [29]: > 100 µM
- TGI [30]: > 100 µM
- TGI [31]: > 100 µM
- TGI [32]: > 100 µM
- TGI [33]: > 100 µM
- TGI [34]: > 100 µM
- TGI [35]: > 100 µM
- TGI [36]: > 100 µM
- TGI [37]: > 100 µM
- TGI [38]: > 100 µM
- TGI [39]: > 100 µM
- TGI [40]: > 100 µM
- TGI [41]: > 100 µM
- TGI [42]: > 100 µM
- TGI [43]: > 100 µM
- TGI [44]: > 100 µM
- TGI [45]: > 100 µM
- TGI [46]: > 100 µM
- TGI [47]: 34.3 µM
- TGI [48]: 67.2 µM
- TGI [49]: > 100 µM
- TGI [50]: > 100 µM
- TGI [51]: > 100 µM
- TGI [52]: > 100 µM
- TGI [53]: > 100 µM
- TGI [54]: > 100 µM
- TGI [55]: > 100 µM

Compound: Nc1nc(-c2cccc3ccccc23)cc2ccccc12
- GI50 [1]: 0.712 µM
- TGI [1]: 13.4 µM
- GI50 [2]: 0.324 µM
- TGI [2]: 2.85 µM
- GI50 [3]: 1.25 µM
- TGI [3]: 19.7 µM
- TGI [4]: > 44.2 µM
- GI50 [5]: 6.3 µM
- TGI [5]: 29.4 µM
- GI50 [6]: 0.386 µM
- TGI [6]: 9.7 µM
- GI50 [7]: 1 µM
- TGI [7]: 17.6 µM
- GI50 [8]: 0.206 µM
- TGI [8]: 3.8 µM
- GI50 [9]: 0.231 µM
- TGI [9]: 1.12 µM
- GI50 [10]: 0.234 µM
- TGI [10]: 3.17 µM
- GI50 [12]: 0.377 µM
- TGI [12]: 2.98 µM
- GI50 [13]: 0.444 µM
- TGI [13]: 5.44 µM
- GI50 [14]: 0.647 µM
- TGI [14]: 22.3 µM
- GI50 [15]: 0.358 µM
- TGI [15]: 12.9 µM
- GI50 [16]: 0.196 µM
- TGI [16]: 16 µM
- GI50 [17]: 0.777 µM
- TGI [17]: 14.2 µM
- GI50 [18]: 0.638 µM
- TGI [18]: > 54.2 µM
- GI50 [19]: 0.549 µM
- TGI [19]: 12.4 µM
- GI50 [20]: 0.287 µM
- TGI [20]: 10.3 µM
- GI50 [21]: 0.46 µM
- TGI [21]: 19.6 µM
- GI50 [22]: 0.494 µM
- TGI [22]: 13.2 µM
- GI50 [23]: 4.81 µM
- TGI [23]: > 100 µM
- GI50 [24]: 0.514 µM
- TGI [24]: 13.4 µM
- GI50 [25]: 0.521 µM
- TGI [25]: 14.6 µM
- GI50 [26]: 1.6 µM
- TGI [26]: 24.4 µM
- GI50 [27]: 1.29 µM
- TGI [27]: > 40.4 µM
- GI50 [28]: 0.332 µM
- TGI [28]: 10.6 µM
- GI50 [29]: 0.257 µM
- TGI [29]: 4.08 µM
- GI50 [30]: 1.12 µM
- TGI [30]: 15.9 µM
- GI50 [31]: 0.563 µM
- TGI [31]: 24 µM
- GI50 [32]: 0.503 µM
- TGI [32]: 13.4 µM
- GI50 [33]: 0.332 µM
- TGI [33]: 1.9 µM
- GI50 [34]: 0.314 µM
- TGI [34]: 20 µM
- GI50 [35]: 1.17 µM
- TGI [35]: 9.68 µM
- GI50 [36]: 0.343 µM
- TGI [36]: 10.4 µM
- GI50 [37]: 0.351 µM
- TGI [37]: 3.96 µM
- GI50 [39]: 0.409 µM
- TGI [39]: 12.6 µM
- GI50 [40]: 0.476 µM
- TGI [40]: 14.9 µM
- GI50 [41]: 0.466 µM
- TGI [41]: 13.9 µM
- GI50 [42]: 0.359 µM
- TGI [42]: 33.9 µM
- GI50 [43]: 1.1 µM
- TGI [43]: 18.3 µM
- GI50 [44]: 0.463 µM
- TGI [44]: 22.1 µM
- GI50 [45]: 0.577 µM
- TGI [45]: 17.8 µM
- GI50 [46]: 13.2 µM
- TGI [46]: 27.9 µM
- GI50 [47]: 0.232 µM
- TGI [47]: > 100 µM
- GI50 [48]: 1.63 µM
- TGI [48]: 11.9 µM
- GI50 [50]: 0.214 µM
- TGI [50]: 0.573 µM
- GI50 [51]: 0.342 µM
- TGI [51]: 13.4 µM
- GI50 [52]: 0.732 µM
- TGI [52]: 24.1 µM
- GI50 [53]: 0.53 µM
- TGI [53]: 10.8 µM
- GI50 [56]: 0.789 µM
- TGI [56]: 16 µM
- GI50 [57]: 0.108 µM
- TGI [57]: 13.1 µM
- GI50 [54]: 0.245 µM
- TGI [54]: 3.91 µM
- GI50 [58]: 0.291 µM
- TGI [58]: 1.69 µM
- GI50 [55]: 0.278 µM
- TGI [55]: 13.8 µM
